In patent US10123995B2, “Factor XIa inhibitors” (MERCK SHARP & DOHME CORP., priority 2015, dated 2018):

Key:
[1] = target: purified Human plasma kallikrein (Homo sapiens (Human), UniProt P03952); experiment: Kallikrein Assay; format: biochemical; details: table titled Kalikrein inhibition (column head prints hFXIa), substrate Acetyl-K-P-R-AFC, pH 7.4
Experimental: (§1) The effectiveness of a compound of the present invention as an inhibitor of Kallikrein can be determined using a relevant purified serine protease, and an appropriate synthetic substrate. The rate of hydrolysis of the chromogenic or fluorogenic substrate by the relevant serine protease was measured both in the absence and presence of compounds of the present invention. Assays were conducted at room temperature or at 37° C. […] A decrease in the rate of fluorescence change in the presence of inhibitor is indicative of enzyme inhibition. Such methods are known to one skilled in the art. The results of this assay are expressed as the inhibitory constant, Ki.
Kallikrein determinations were made in 50 mM HEPES buffer at pH 7.4 containing 150 mM NaCl, 5 mM CaCl2, and 0.1% PEG 8000 (polyethylene glycol; Fisher Scientific). Determinations were made using purified Human plasma kallikrein at a final concentration of 0.5 nM (Enzyme Research Laboratories) and the synthetic substrate, Acetyl-K-P-R-AFC (Sigma # C6608) at a concentration of […].
Activity assays were performed by diluting a stock solution of substrate at least tenfold to a final concentration ≤0.2 Km into a solution containing enzyme or enzyme equilibrated with inhibitor. Times required to achieve equilibration between enzyme and inhibitor were determined in control experiments. The reactions were performed under linear progress curve conditions and fluorescence increase measured at 405 Ex/510 Em nm. Values were converted to percent inhibition of the control reaction (after subtracting 100% Inhibition value). IC50 was determined by inflection point from a four parameter logistic curve fit. Ki was calculated using the Cheng Prusoff equation, Ki=IC50/(1+([S]/Km)).

[2] = target: purified human Factor XIa (Homo sapiens (Human), UniProt P03951); experiment: Factor XIa Assay; format: biochemical; details: Factor XIa inhibition; substrate Z-Gly-Pro-Arg-AFC, pH 7.4; read-out: hFXIa IC50
Experimental: as §1, with “Coagulation Factor XIa” for “Kallikrein”, “The results of this assay are expressed as the inhibitory constant, Ki.” left out
Factor XIa determinations were made in 50 mM HEPES buffer at pH 7.4 containing 150 mM NaCl, 5 mM CaCl2, and 0.1% PEG 8000 (polyethylene glycol; JT Baker or Fisher Scientific). Determinations were made using purified human Factor XIa at a final concentration of 40 pM (Sekisui Diagnostics) and the synthetic substrate, Z-Gly-Pro-Arg-AFC, TFA salt (Sigma #C0980) at a concentration of 100 μM.
Activity assays were performed by diluting a stock solution of substrate at least tenfold to a final concentration ≤0.1 Km into a solution containing enzyme or enzyme equilibrated with inhibitor. Times required to achieve equilibration between enzyme and inhibitor were determined in control experiments. Initial velocities of product formation in the absence (Vo) or presence of inhibitor (Vi) were measured. Assuming competitive inhibition, and that unity is negligible compared Km/[S], [I]/e, and [I]/e (where [S], [I], and e respectively represent the total concentrations, of substrate, inhibitor and enzyme), the equilibrium constant (Ki) for dissociation of the inhibitor from the enzyme can be obtained from the dependence of Vo/Vi on [I] shown in the following equation. Vo/Vi=1+[I]/Ki

Chain of purified human Factor XIa (P03951 388-625): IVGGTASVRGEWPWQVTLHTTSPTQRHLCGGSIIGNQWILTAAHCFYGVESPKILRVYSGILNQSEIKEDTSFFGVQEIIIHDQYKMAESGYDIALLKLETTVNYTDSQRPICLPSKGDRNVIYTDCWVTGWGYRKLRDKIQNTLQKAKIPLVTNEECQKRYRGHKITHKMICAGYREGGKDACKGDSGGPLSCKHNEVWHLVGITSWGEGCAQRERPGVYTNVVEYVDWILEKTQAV
Chain of purified human Factor XIa (P03951 19-387 partner): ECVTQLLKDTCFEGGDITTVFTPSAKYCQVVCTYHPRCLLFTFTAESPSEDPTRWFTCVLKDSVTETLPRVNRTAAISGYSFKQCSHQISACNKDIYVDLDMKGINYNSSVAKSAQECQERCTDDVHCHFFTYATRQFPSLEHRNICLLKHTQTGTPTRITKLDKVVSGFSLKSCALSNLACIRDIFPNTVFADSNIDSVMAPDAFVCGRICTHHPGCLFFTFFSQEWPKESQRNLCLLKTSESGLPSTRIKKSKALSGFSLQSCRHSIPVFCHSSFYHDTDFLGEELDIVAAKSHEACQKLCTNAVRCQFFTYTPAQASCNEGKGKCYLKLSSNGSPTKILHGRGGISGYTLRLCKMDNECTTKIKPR
Chain of purified Human plasma kallikrein (P03952 391-638): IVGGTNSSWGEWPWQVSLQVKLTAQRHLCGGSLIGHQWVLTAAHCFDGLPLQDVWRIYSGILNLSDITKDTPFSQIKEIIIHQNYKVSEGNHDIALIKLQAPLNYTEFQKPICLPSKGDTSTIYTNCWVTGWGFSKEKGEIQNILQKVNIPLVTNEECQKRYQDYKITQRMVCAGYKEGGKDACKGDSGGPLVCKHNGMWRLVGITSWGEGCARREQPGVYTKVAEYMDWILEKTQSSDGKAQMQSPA
Chain of purified Human plasma kallikrein (P03952 20-390 partner): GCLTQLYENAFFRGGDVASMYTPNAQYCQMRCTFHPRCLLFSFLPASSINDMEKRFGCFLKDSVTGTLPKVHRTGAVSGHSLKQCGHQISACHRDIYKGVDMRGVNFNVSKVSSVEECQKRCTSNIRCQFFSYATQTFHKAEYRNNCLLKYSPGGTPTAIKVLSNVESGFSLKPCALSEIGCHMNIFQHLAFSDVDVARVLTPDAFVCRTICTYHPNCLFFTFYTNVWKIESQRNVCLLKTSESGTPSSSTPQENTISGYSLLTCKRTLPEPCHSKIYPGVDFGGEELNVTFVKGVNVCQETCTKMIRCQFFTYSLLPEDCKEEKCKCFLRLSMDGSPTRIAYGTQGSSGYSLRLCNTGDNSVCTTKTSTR

| SMILES | IC50 [1] | IC50 [2] |
| --- | --- | --- |
| O=C(O)c1ccc(NC(=O)C2CC(O)c3cc(-c4cc(Cl)ccc4-n4cnnn4)c[n+]([O-])c32)cc1 (single isomer, unassigned) [Example 5] | 504 nM | 3.6 nM |
| O=C(O)c1ccc(NC(=O)C2(O)CCc3cc(-c4cc(Cl)ccc4-n4cnnn4)c[n+]([O-])c32)cc1 (stereo not shown) [Example 19, 4-[({3-[5-Chloro-2-(1H-tetrazol-1-yl)phenyl]-7-hydroxy-1-oxido-6,7-dihydro-5H-cyclopenta[b]pyridin-7-yl}carbonyl)amino]benzoic acid] | 1370 nM | 6 nM |
| COC(=O)Nc1ccc(C(=O)NC2CCc3cc(-c4cc(Cl)ccc4-n4cnnn4)c[n+]([O-])c32)cc1 (stereo not shown) [Example 20, 3-(5-Chloro-2-(H-tetrazol-1-yl)phenyl)-7-(4-((methoxycarbonyl)amino)benzamido)-6,7-dihydro-5H-cyclopenta[b]pyridine 1-oxide] |  | 894 nM |
| O=C(O)c1ccc(NC(=O)C2(F)CC(F)c3cc(-c4cc(Cl)ccc4-n4cnnn4)c[n+]([O-])c32)cc1 (single isomer, unassigned) [Example 16, 4-[({3-[5-Chloro-2-(1H-tetrazol-1-yl)phenyl]-5,7-difluoro-1-oxido-6,7-dihydro-5H-cyclopenta[b]pyridin-7-yl}carbonyl)amino]benzoic acid] |  | 85.6 nM |
| O=C(O)c1ccc(NC(=O)C2(O)CC(O)c3cc(-c4cc(Cl)ccc4-n4cnnn4)c[n+]([O-])c32)cc1 (single isomer, unassigned) [Example 12, 4-[({3-[5-Chloro-2-(1H-tetrazol-1-yl)phenyl]-5,7-dihydroxy-1-oxido-6,7-dihydro-5H-cyclopenta[b]pyridin-7-yl}carbonyl)amino]benzoic acid] |  | 202 nM |
| O=C(O)c1ccc(NC(=O)C2(F)CC(F)c3cc(-c4cc(Cl)ccc4-n4cnnn4)c[n+]([O-])c32)cc1 (single isomer, unassigned) [Example 15, 4-[({3-[5-Chloro-2-(1H-tetrazol-1-yl)phenyl]-5,7-difluoro-1-oxido-6,7-dihydro-5H-cyclopenta[b]pyridin-7-yl}carbonyl)amino]benzoic acid] | 4920 nM | 14.1 nM |
| O=C(O)c1ccc(NC(=O)C2(F)CC(F)c3cc(-c4cc(Cl)ccc4-n4cnnn4)c[n+]([O-])c32)cc1 (single isomer, unassigned) [Example 17, 4-[({3-[5-Chloro-2-(1H-tetrazol-1-yl)phenyl]-5,7-difluoro-1-oxido-6,7-dihydro-5H-cyclopenta[b]pyridin-7-yl}carbonyl)amino]benzoic acid] |  | 4440 nM |
| O=C(O)c1ccc(NC(=O)C2(O)CC(O)c3cc(-c4cc(Cl)ccc4-n4cnnn4)c[n+]([O-])c32)cc1 (stereo not shown) [Example 8, 4-[({3-[5-Chloro-2-(1H-tetrazol-1-yl)phenyl]-5,7-dihydroxy-1-oxido-6,7-dihydro-5H-cyclopenta[b]pyridin-7-yl}carbonyl)amino]benzoic acid] | 816 nM | 4.2 nM |
| O=C(O)c1ccc(NC(=O)C2(O)CC(O)c3cc(-c4cc(Cl)ccc4-n4cnnn4)c[n+]([O-])c32)cc1 (single isomer, unassigned) [Example 9, 4-[({3-[5-Chloro-2-(1H-tetrazol-1-yl)phenyl]-5,7-dihydroxy-1-oxido-6,7-dihydro-5H-cyclopenta[b]pyridin-7-yl}carbonyl)amino]benzoic acid] | 460 nM | 2.9 nM |
| O=C(O)c1ccc(NC(=O)C2CC(O)c3cc(-c4cc(Cl)ccc4-n4cnnn4)c[n+]([O-])c32)cc1 (racemic) [Example 6, 4-[({3-[5-chloro-2-(1H-tetrazol-1-yl)phenyl]-5-hydroxy-1-oxido-6,7-dihydro-5H-cyclopenta[b]pyridin-7-yl}carbonyl)amino]benzoic acid] | 700 nM | 10.5 nM |
| O=C(O)c1ccc(NC(=O)C2(O)CC(O)c3cc(-c4cc(Cl)ccc4-n4cnnn4)c[n+]([O-])c32)cc1 (single isomer, unassigned) [Example 11, 4-[({3-[5-Chloro-2-(1H-tetrazol-1-yl)phenyl]-5,7-dihydroxy-1-oxido-6,7-dihydro-5H-cyclopenta[b]pyridin-7-yl}carbonyl)amino]benzoic acid] |  | 104 nM |
| O=C(O)c1ccc(NC(=O)[C@H]2CCc3cc(-c4c(F)ccc(Cl)c4F)c[n+]([O-])c32)cc1 [Example 3, 4-({[(7S)-3-(3-chloro-2,6-difluorophenyl)-1-oxido-6,7-dihydro-5H-cyclopenta[b]pyridin-b7-yl]carbonyl}amino)benzoic acid] |  | 2920 nM |
| O=C(O)c1ccc(NC(=O)C2(CC3CC3)CCc3cc(-c4cc(Cl)ccc4-n4cnnn4)c[n+]([O-])c32)cc1 (single isomer, unassigned) [Example 22, 7-((4-carboxyphenyl)carbamoyl)-3-(5-chloro-2-(1H-tetrazol-1-yl)phenyl)-7-(cyclopropylmethyl)-6,7-dihydro-5H-cyclopenta[b]pyridine 1-oxide] |  | 178 nM |
| O=C(O)c1ccc(NC(=O)C2(F)CC(F)c3cc(-c4cc(Cl)ccc4-n4cnnn4)c[n+]([O-])c32)cc1 (single isomer, unassigned) [Example 18, 4-[({3-[5-Chloro-2-(1H-tetrazol-1-yl)phenyl]-5,7-difluoro-1-oxido-6,7-dihydro-5H-cyclopenta[b]pyridin-7-yl}carbonyl)amino]benzoic acid] |  | 9450 nM |
| O=C(O)c1ccc(NC(=O)C2(O)CC(O)c3cc(-c4cc(Cl)ccc4-n4cnnn4)c[n+]([O-])c32)cc1 (single isomer, unassigned) [Example 10, 4-[({3-[5-Chloro-2-(1H-tetrazol-1-yl)phenyl]-5,7-dihydroxy-1-oxido-6,7-dihydro-5H-cyclopenta[b]pyridin-7-yl}carbonyl)amino]benzoic acid] | 530 nM | 2.7 nM |
| O=C(O)c1ccc(NC(=O)C2CC(O)c3cc(-c4cc(Cl)ccc4-n4cnnn4)c[n+]([O-])c32)cc1 (single isomer, unassigned) [Example 7] | 1720 nM | 8.6 nM |
| O=C(O)c1ccc(NC(=O)C2(CC3CC3)CCc3cc(-c4cc(Cl)ccc4-n4cnnn4)c[n+]([O-])c32)cc1 (single isomer, unassigned) [Example 21, 7-((4-carboxyphenyl)carbamoyl)-3-(5-chloro-2-(1H-tetrazol-1-yl)phenyl)-7-(cyclopropylmethyl)-6,7-dihydro-5H-cyclopenta[b]pyridine 1-oxide] |  | > 870 nM |
| O=C(O)c1ccc(NC(=O)[C@@H]2CCc3cc(-c4c(F)ccc(Cl)c4F)c[n+]([O-])c32)cc1 [Example 4, 4-({[(7R)-3-(3-chloro-2,6-difluorophenyl)-1-oxido-6,7-dihydro-5H-cyclopenta[b]pyridin-7-yl]carbonyl}amino)benzoic acid] |  | 2370 nM |
| O=C(NC12CCC(C(=O)O)(CC1)CC2)C1CCc2cc(-c3cc(Cl)ccc3-n3cnnn3)c[n+]([O-])c21 (stereo not shown) [Example 2, 7-((4-carboxybicyclo[2.2.2]octan-1-yl)carbamoyl)-3-(5-chloro-2-(1H-tetrazol-1-yl)phenyl)-6,7-dihydro-5H-cyclopenta[b]pyridine=1-oxide] |  | 2000 nM |
| O=C(O)c1ccc(NC(=O)C2(O)CC(F)c3cc(-c4cc(Cl)ccc4-n4cnnn4)c[n+]([O-])c32)cc1 (single isomer, unassigned) [Example 14, 4-[({3-[5-Chloro-2-(1H-tetrazol-1-yl)phenyl]-5-fluoro-7-hydroxy-1-oxido-6,7-dihydro-5H-cyclopenta[b]pyridin-7-yl}carbonyl)amino]benzoic acid] |  | 219 nM |
